In this assay the target is T1, IRAK4 (Homo sapiens, UniProt Q9NWZ3).
T1 construct: endogenous in cells; host or cells: THP-1 cells
T1 sequence (Q9NWZ3 1-460): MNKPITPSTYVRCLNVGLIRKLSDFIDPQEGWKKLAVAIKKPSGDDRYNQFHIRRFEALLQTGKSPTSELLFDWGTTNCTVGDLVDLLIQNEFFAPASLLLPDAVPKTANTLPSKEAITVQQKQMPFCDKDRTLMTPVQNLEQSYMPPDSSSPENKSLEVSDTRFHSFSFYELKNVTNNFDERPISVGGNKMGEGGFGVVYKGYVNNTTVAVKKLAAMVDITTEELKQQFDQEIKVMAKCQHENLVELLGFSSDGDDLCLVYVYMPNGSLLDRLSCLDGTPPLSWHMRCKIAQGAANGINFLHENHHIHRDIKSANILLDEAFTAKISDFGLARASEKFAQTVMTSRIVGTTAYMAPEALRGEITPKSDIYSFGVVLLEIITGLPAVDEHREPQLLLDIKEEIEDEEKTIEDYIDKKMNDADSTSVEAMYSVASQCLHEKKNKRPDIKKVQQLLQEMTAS
Nature of the assay: LVL THP1 HTRF (THP1 Homogeneous Time Resolved Fluorescence). The class given is cell-based. Particulars: THP1 cells, 18 h incubation with compound; for DC50: read-out: LVL THP1 HTRF EC50. How it is done:
Cell culture media was prepared in a tissue culture hood in a sterile environment by adding 10% FBS and 1% Penicillin Streptomycin to 500 mL no phenol red RPMI 1640 media. The media was filtered through a Nalgene Bottle Top Filter and stored at 4° C.
For Homogenous Time Resolved Fluorescence (HTRF) assays, a Cisbio HTRF kit was used, which included: Lysis Buffer #1 4×, Blocking Reagent #3 100×, 20× Antibody 1 (Anti-IRAK4 d2), 20× Antibody 2 (Anti-IRAK4 k), and Detection Buffer.
The THP1 plates were prepared by the following method. For each dosing plate, a duplicate for CTG assay was prepared. Two THP-1 T-175 flasks could be used to plate one 384 well plate. The cells were collected from two T-175 flasks into 200 mL centrifuge tubes and spun down at 1200 rpm for 10 min. The supernatant was removed completely and cells were resuspended in 7.5 mL cell culture media. To 5 μL of the cell suspension was added 25 μL of media and 30 μL of Trypan Blue stain. The cells were counted using countess (automated cell counter, Thermo Fisher Scientific) twice and the viability and live cell count was recorded. The actual cell count was […] the live cell count. Based on the count, a cell suspension was prepared in colorless RPMI media for a final concentration of 7.5e6 cells/mL. Using Standard cassette multidrop combi, 20 μL of the 7.5e6 cells/mL cell stock was added to entire 384 well plate but for top half of column 1 (negative control) The multidrop combi was always primed to achieve a steady flow and washed after use with 20 mL de-ionized water followed by 20 mL alcohol. The cells were incubated in 5% CO2 incubator at 37° C.
Dosing was conducted using the following method. To dose assay plates and CTG plate was added 20 nL of compounds in DMSO using Echo (Beckman Coulter), and the plates were incubated at 37° C. for 18 h. The compound plates were spun at 1200 rpm for 1 min before dosing. The compound plate was sealed and properly stored during incubation.
After dosing, an HTRF assay was conducted using the following method. The treatment plates (IRAK4_HTRF) were centrifuged at 600 g for 10 min. Using CyBio Felix, Automated liquid handler (Analytikjena), 13 μL cell culture media was removed. To all columns, 7.5 μL lysis buffer was added, and an additional 7.5 μL of lysis buffer was added to column 1(top half, negative control). The plate was incubated on a shaker at room temperature for 2 h. The plate was spun down at 600 g for 5 min. Custom 20×IRAK4 Antibody obtained from CISBIO Anti-IRAK4-d2 (acceptor Ab) and Anti-IRAK4-K (donor Ab) were diluted to 1× antibody mix Using a multichannel repeater, 4 μL of 1× antibody mix was added to each wellThe plate was spun down at 600 g for 5 min and incubated in the dark at room temperature for 18 h The next day (after 18 hrs), HTRF assay plate was spun down at 600 g for 5 min and read at 665/615 nm using a Envision plate reader.

On to `C[C@H](C#N)Nc1cc(-n2ncc3cc(C#N)cnc32)ncc1-n1cc([C@H]2CC[C@H](CCN3C[C@@H]4CN(c5ccc(N6CCC(=O)NC6=O)cc5)C[C@@H]4C3)CC2)nn1` (single isomer, unassigned) [P-323], for which the “LVL THP1 HTRF YMIN” value was determined as 12.0% and the DC50 was 0.0967 µM.
On the same counts, the results for `C[C@H](C#N)Nc1cc(-n2ncc3cc(C#N)cnc32)ncc1-n1cc([C@H]2CC[C@H](CCN3CC[C@H]4[C@@H]3CCN4c3ccc(C4CCC(=O)NC4=O)cc3)CC2)nn1` (single isomer, unassigned) [P-325] are 1.6% and 0.0038 µM.
On the same counts, the results for `C[C@H](C#N)Nc1cc(-n2ncc3cc(C#N)cnc32)ncc1-n1cc([C@H]2CC[C@H](CCN3CC[C@H](c4ccc([C@@]5(F)CCC(=O)NC5=O)cc4)C[C@H]3C)CC2)nn1` (single isomer, unassigned) [P-326] are 0.3% and 0.004 µM.
Take `C[C@H](C#N)Nc1cc(-n2ncc3cc(C#N)cnc32)ncc1-n1cc([C@H]2CC[C@H](CCN3CC[C@H]4[C@@H]3CCN4c3ccc(C4CCC(=O)NC4=O)cc3)CC2)nn1` (single isomer, unassigned) [P-327]: the “LVL THP1 HTRF YMIN” value was found to be 2.2% and the DC50 amounted to 0.0028 µM.
The corresponding values for `C[C@H](C#N)Nc1cc(-n2ncc3cc(C#N)cnc32)ncc1-n1cc(C2CCC(CCN3CC[C@H]4[C@@H]3CCN4c3ccc(N4CCC(=O)NC4=O)cc3)CC2)nn1` (single isomer, unassigned) [P-328] are 2.5% and 0.0025 µM.
On the same counts, the results for `CC1CN(CC[C@H]2CC[C@H](c3cn(-c4cnc(-n5ncc6cc(C#N)cnc65)cc4N[C@H](C)C#N)nn3)CC2)CCC1c1ccc([C@@]2(F)CCC(=O)NC2=O)cc1` (single isomer, unassigned) [P-331] are −2.2% and 0.0018 µM.
The corresponding values for `CC1CN(CC[C@H]2CC[C@H](c3cn(-c4cnc(-n5ncc6cc(C#N)cnc65)cc4N[C@H](C)C#N)nn3)CC2)CCC1c1ccc([C@@]2(F)CCC(=O)NC2=O)cc1` (single isomer, unassigned) [P-332] are 20.7% and 0.261 µM.
Regarding `CC1CN(CC[C@H]2CC[C@H](c3cn(-c4cnc(-n5ncc6cc(C#N)cnc65)cc4N[C@H](C)C#N)nn3)CC2)CCC1c1ccc([C@@]2(F)CCC(=O)NC2=O)cc1` (single isomer, unassigned) [P-333], the “LVL THP1 HTRF YMIN” value came to 26.8% and the DC50 turned out to be 0.334 µM.
On the same counts, the results for `C[C@H](C#N)Nc1cc(-n2ncc3cc(C#N)cnc32)ncc1-n1cc([C@H]2CC[C@H](CCN3CCC(c4ccc([C@@]5(F)CCC(=O)NC5=O)cc4)CC3)CC2)nn1` (single isomer, unassigned) [P-337] are 2.7% and 0.0038 µM.
The corresponding values for `C[C@H](C#N)Nc1cc(-n2ncc3cc(C#N)cnc32)ncc1-n1cc([C@H]2CC[C@H](CCN3CCC(c4ccc([C@@]5(F)CCC(=O)NC5=O)cc4)CC3)CC2)nn1` (single isomer, unassigned) [P-338] are 61.2% and 0.501 µM.
The corresponding values for `C[C@H](C#N)Nc1cc(-n2ncc3cc(C#N)cnc32)ncc1-n1cc([C@H]2CC[C@](O)(CCN3CCN(c4ccc(N5CCC(=O)NC5=O)cc4)CC3)CC2)nn1` (single isomer, unassigned) [P-373] are 72.5% and 1 µM.
In the case of `CC1CN(CC[C@H]2CC[C@H](c3cn(-c4cnc(-n5ncc6cc(C#N)cnc65)cc4N[C@H](C)C#N)nn3)CC2)CCC1c1ccc([C@@]2(F)CCC(=O)NC2=O)cc1` (single isomer, unassigned) [P-390], the “LVL THP1 HTRF YMIN” value is −1.8% and the DC50 was 0.0028 µM.
The corresponding values for `C[C@H](C#N)Nc1cc(-n2ncc3cc(C#N)cnc32)ncc1-n1cc([C@H]2CC[C@H](CCN3CCC(c4ccc(N5CCC(=O)NC5=O)cc4)C(F)C3)CC2)nn1` (single isomer, unassigned) [P-400] are 7.8% and 0.0279 µM.
On the same counts, the results for `C[C@H](C#N)Nc1cc(-n2ncc3cc(C#N)cnc32)ncc1-n1cc([C@H]2CC[C@H](CCN3CCC[C@@H]4[C@H]3CCCN4c3ccc([C@@]4(C)CCC(=O)NC4=O)cc3)CC2)nn1` (single isomer, unassigned) [P-414] are 71.4% and 2.35 µM.
The corresponding values for `C[C@H](C#N)Nc1cc(-n2ncc3cc(C#N)cnc32)ncc1-n1cc([C@H]2CC[C@H](CCN3CC[C@H]4[C@@H]3CCN4c3ccc([C@@]4(C)CCC(=O)NC4=O)nc3)CC2)nn1` (single isomer, unassigned) [P-415] are 37.5% and 0.192 µM.
`C[C@H](C#N)Nc1cc(-n2ncc3cc(C#N)cnc32)ncc1-n1cc([C@H]2CC[C@H](CCN3CCC(c4ccc([C@@]5(C)CCC(=O)NC5=O)cc4)C(F)(F)C3)CC2)nn1` (single isomer, unassigned) [P-417]: the “LVL THP1 HTRF YMIN” value is 1.8% and the DC50 came to 0.0514 µM.
On the same counts, the results for `C[C@H](C#N)Nc1cc(-n2ncc3cc(C#N)cnc32)ncc1-n1cc([C@H]2CC[C@H](CCN3CC[C@H]4[C@@H]3CCN4c3ccc([C@@]4(C)CCC(=O)NC4=O)nc3)CC2)nn1` (single isomer, unassigned) [P-418] are 1.8% and 0.0149 µM.
On the same counts, the results for `C[C@H](C#N)Nc1cc(-n2ncc3cc(C#N)cnc32)ncc1-n1cc([C@H]2CC[C@](O)(CCN3CCN(c4ccc([C@@]5(C)CCC(=O)NC5=O)nc4)CC3)CC2)nn1` (single isomer, unassigned) [P-419] are −0.8% and 0.0316 µM.
As to `C[C@H](C#N)Nc1cc(-n2ncc3cc(C#N)cnc32)ncc1-n1cc([C@H]2CC[C@H](CCN3CCC(c4ccc(N5CCC(=O)NC5=O)cc4)C(F)(F)C3)CC2)nn1` (single isomer, unassigned) [P-420], the “LVL THP1 HTRF YMIN” value stood at 1.7% and the DC50 worked out at 0.0262 µM.
On the same counts, the results for `C[C@H](C#N)Nc1cc(-n2ncc3cc(C#N)cnc32)ncc1-n1cc([C@H]2CC[C@H](CCN3CCC(F)(c4ccc([C@@]5(C)CCC(=O)NC5=O)cc4)CC3)CC2)nn1` (single isomer, unassigned) [P-424] are 5.3% and 0.0019 µM.
On the same counts, the results for `C[C@H](C#N)Nc1cc(-n2ncc3cc(C#N)cnc32)ncc1-n1cc([C@H]2CC[C@](O)(CCN3CCN(c4ccc([C@@]5(C)CCC(=O)NC5=O)cn4)CC3)CC2)nn1` (single isomer, unassigned) [P-426] are 41.0% and 1 µM.
On to `C[C@H](C#N)Nc1cc(-n2ncc3cc(C#N)cnc32)ncc1C(=O)N[C@H]1CC[C@H](CCN2CC[C@H]3[C@@H]2CCN3c2ccc([C@@]3(C)CCC(=O)NC3=O)cc2)CC1` (single isomer, unassigned) [P-427], for which the “LVL THP1 HTRF YMIN” value is given as 1.8% and the DC50 worked out at 0.0404 µM.
The corresponding values for `C[C@H](C#N)Nc1cc(-n2ncc3cc(C#N)cnc32)ncc1-n1cc([C@H]2CC[C@](O)(CCN3CCN(c4ccc(N5CCC(=O)NC5=O)cc4)CC3)CC2)nn1` (single isomer, unassigned) [P-429] are 5.4% and 0.0594 µM.

The values are drawn from patent US20240109881A1, “Heteroaryl Compounds as Ligand Directed Degraders of IRAK4” (Bristol-Myers Squibb Company, priority 2022, published 2024).
